This passage reports EC50 and AC50 results from ChEMBL document CHEMBL1201862, “PubChem BioAssay data set” (2004).

What is called AC50 is the midpoint of the concentration-response curve, whichever way the signal moves.

SMILES strings stand for the structures. The source made the active and inactive calls.

Chain of Cytochrome P450 2C19 (P33261 whole entry): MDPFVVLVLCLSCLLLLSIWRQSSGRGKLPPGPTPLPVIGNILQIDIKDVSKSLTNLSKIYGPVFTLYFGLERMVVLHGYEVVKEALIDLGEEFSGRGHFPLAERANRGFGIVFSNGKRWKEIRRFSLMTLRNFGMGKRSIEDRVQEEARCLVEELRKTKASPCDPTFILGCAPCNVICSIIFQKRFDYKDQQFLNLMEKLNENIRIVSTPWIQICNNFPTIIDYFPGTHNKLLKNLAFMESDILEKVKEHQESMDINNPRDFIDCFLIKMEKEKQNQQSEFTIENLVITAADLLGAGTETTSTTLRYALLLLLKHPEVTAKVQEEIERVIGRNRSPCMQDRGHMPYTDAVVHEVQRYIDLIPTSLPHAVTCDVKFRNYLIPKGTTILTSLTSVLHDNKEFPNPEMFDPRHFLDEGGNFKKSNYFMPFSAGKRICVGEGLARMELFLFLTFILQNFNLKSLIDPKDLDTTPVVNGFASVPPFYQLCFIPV

One data set deals with Streptococcus sp. 'group A'. In words: growth inhibition of control SK(-) GAS strain, dose response, counter-screen for streptokinase expression inhibitor project, luminescence, kanamycin, BacTiterGlo, confirmation (AID 1900). Type of data set: functional, organism-based.
Settings: not given
Regarding `Cc1ccc(NS(=O)(=O)c2cc([N+](=O)[O-])ccc2NN=C(S)Nc2cccc(Cl)c2)c(C)c1`, the EC50 is 0.833 µM (active).

The next data set addresses Cytochrome P450 2C19 (Homo sapiens, UniProt P33261). In words: Cytochrome panel assay with activity outcomes. Panel member name: p450-cyp2c19 Compounds with AC50 equal or less than 10 uM are considered active. Format: functional.
Settings: not given
Regarding `Cc1cn(CC[C@H](N)C(=O)O)c(=O)[nH]c1=O`, the AC50 result was “inconclusive”.
The same measure, in the same setting: for `COC(=O)NC/C=C\c1nc(CC/C=C\C(=O)O[C@H]2C[C@H]3CC(=O)O[C@@H](/C=C\CC(C)C)C[C@@H]4CC[C@H](C)[C@H](C[C@@H](OC)C[C@H](C2)O3)O4)co1` the value was “inconclusive”; for `CCC1(C)CC(=O)NC(=O)C1` [BEMEGRIDE], “inconclusive”.

Staying with this data set, now noted: read-out: AC50.
For the molecule `O=C(CCCCCn1c(=S)[nH]c2cc3c(cc2c1=O)OCO3)N1CCN(C2CCCCC2)CC1`, the AC50 was 7.08 µM (inconclusive).
Still for that read-out and setting: for `COc1ccccc1NC(=O)N1CCCC1C(=O)NCc1ccc2c(c1)OCO2` (centres undefined) the value was 28.2 µM (inconclusive).
On the same count and under the same terms, for `COc1ccc2c(c1)CCCC21NC(=O)N(CC(N)=O)C1=O` (centres undefined) the value was 39.8 µM (inconclusive); for `COc1ccc(-n2c(=O)cnc3cnc(Oc4ccccc4)nc32)cc1`, 39.8 µM (inconclusive); for `CN=C(S)Nc1ccc2nc(C)c(C)nc2c1`, 39.8 µM (inconclusive).
The same measure, in the same setting: for `Cn1c(S)nnc1CNS(=O)(=O)c1ccc(F)cc1` the value was 39.8 µM (inconclusive).

Another data set deals with Cytochrome P450 3A4 (Homo sapiens, UniProt P08684).
Chain of Cytochrome P450 3A4 (P08684 whole entry): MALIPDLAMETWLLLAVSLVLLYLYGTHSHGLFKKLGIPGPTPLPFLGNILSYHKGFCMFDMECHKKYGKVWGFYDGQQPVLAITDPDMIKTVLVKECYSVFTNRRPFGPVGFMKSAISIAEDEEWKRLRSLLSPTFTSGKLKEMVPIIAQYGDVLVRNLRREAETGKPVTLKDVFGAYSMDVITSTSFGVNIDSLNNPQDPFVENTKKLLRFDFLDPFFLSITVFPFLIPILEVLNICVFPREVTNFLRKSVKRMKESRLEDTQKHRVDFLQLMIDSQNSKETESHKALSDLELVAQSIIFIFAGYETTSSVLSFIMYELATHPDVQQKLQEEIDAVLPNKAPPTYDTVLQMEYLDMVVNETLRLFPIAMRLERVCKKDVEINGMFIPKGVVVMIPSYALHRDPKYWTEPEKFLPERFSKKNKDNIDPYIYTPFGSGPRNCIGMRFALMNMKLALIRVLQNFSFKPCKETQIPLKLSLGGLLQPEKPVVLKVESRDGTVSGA
Settings: not given
In the case of `OCCNc1ncnc2nc[nH]c12`, the AC50 is 0.251 µM (inconclusive).
The same measure, in the same setting: for `O=C(Nc1nnc(C2CC2)s1)c1ccncc1` the value was 14.1 µM (inconclusive); for `N#Cc1cccc(-c2nc3cnc(N4CCNCC4)nc3n(C3CC3)c2=O)c1`, 20 µM (inconclusive); for `Cc1noc(C)c1-c1nccc(N(C)Cc2ccco2)n1`, 25.1 µM (inconclusive).
As to `O=C(C/C=N/OCc1ccc(F)cc1Cl)c1cnc(-c2ccccc2)s1`, the AC50 is 14.1 µM (inconclusive).
Turning to `Cc1nc2cnc(N3CCOCC3)nc2n(C2CC2)c1=O`, the AC50 is 15.8 µM (inconclusive).
Regarding `COc1ccc(S(=O)(=O)N2Cc3ccccc3CC2C(=O)Nc2nccs2)cc1` (centres undefined), the AC50 was 3.55 µM (active).
Still for that read-out and setting: with `COc1cc(N)c(Cl)cc1C(=O)CCC1CCN(CCNS(C)(=O)=O)CC1` the figure was 15.8 µM (inconclusive); with `Cc1noc(C)c1C(=O)N1CCC2(CCCN(Cc3nccs3)C2)CC1`, 12.6 µM (inconclusive).
`C=CCNC(=O)c1cccn1-c1ccsc1C(=O)OC`: the AC50 was 14.1 µM (inconclusive).
Still for that read-out and setting: for `CC(=O)N1CCC[C@@]2(CCN(c3ccncc3)C2)C1` the value was 25.1 µM (inconclusive); for `COc1ccc(C(=O)Nc2scc(-c3ccc(Cl)cc3Cl)c2C(N)=O)cc1`, 28.2 µM (inconclusive).
Consider `CN=C(S)Nc1ccc2nc(C)c(C)nc2c1`, for which the AC50 is 17.8 µM (inconclusive).
The same measure, in the same setting: for `Cc1ccc(S(=O)(=O)NC2=NC(=O)/C(=C/c3cccnc3)S2)cc1` the value was 0.891 µM (inconclusive); for `O=c1c(-c2ccc(F)cc2)nc2cnc(N3CCOCC3)nc2n1Cc1cccs1`, 15.8 µM (inconclusive); for `CCCC(=O)Nc1nc(-c2ccc3c(c2)CCN3S(C)(=O)=O)cs1`, 7.94 µM (inconclusive).

Tested on in the next data set: not listed separately
In words: inhibitors of intracellular T. cruzi replication, confirmation, NIH3T3 host cells, beta-gal luminescence (AID 2044).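 Further: intracellular parasites grown in NIH/3T3 mouse fibroblasts as host cells; luminescent beta-galactosidase reporter signal from transgenic T. cruzi replicating inside host cells; inhibitors lower the luminescence signal.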 Type of data set: functional, cell-based.
Settings: not given
As for `O=C(COc1ccccc1)N1CCN(c2nnc(-c3ccccc3)c3ccccc23)CC1`, the EC50 was 1.77 µM (active).
On the same count and under the same terms, for `Fc1ccc(COc2ccccc2CNCc2ccncc2)cc1` the value was 2.14 µM (active).
Still for that read-out and setting: with `Cc1ccc(NC(=S)/N=C(\N)Nc2nc(C)c3cc(C)c(C)cc3n2)cc1C` the figure was 1.98 µM (active); with `CN1CCN(c2oc(COc3ccc(-c4ccccc4)cc3)nc2C#N)CC1`, 0.226 µM (active).
Consider `CCCCN=C(S)N1CCn2cccc2C1c1cccnc1` (centres undefined), for which the EC50 is 1.77 µM (active).
Same read-out and setting: for `CCOc1ccc(NC(=O)CCSc2nc3c(c(CC)c2C#N)C(=O)CC(C)(C)C3)cc1` the value was 2.94 µM (active); for `CC1(C)CC2CC(C)(CN2C(=O)c2ccc([N+](=O)[O-])cc2[N+](=O)[O-])C1` (centres undefined), 0.955 µM (active); for `CCS(=O)(=O)N1CCN(c2ccc(C(=O)NC3C4CC5CC(C4)CC3C5)cc2[N+](=O)[O-])CC1` (centres undefined), 2.32 µM (active).
Same read-out and setting: with `c1cncc(-c2nc(NCCCN3CCOCC3)c3c4c(sc3n2)CCC4)c1` the figure was 2.58 µM (active).
Same read-out and setting: with `Fc1ccc(NC(=S)N2CCn3cccc3C2c2cccnc2)cc1` (centres undefined) the figure was 0.229 µM (active); with `CCC1(CC)C(=O)N(Cc2ccccc2)C(=O)N(Cc2ccccc2)C1=O`, 1.71 µM (active); with `Cc1nc(Nc2ccc(S(=O)(=O)N3CCCCC3C)cc2)c2nnn(Cc3ccccc3)c2n1` (centres undefined), 1.92 µM (active).
Regarding `CCOc1ccc(Br)cc1C1C(C(=O)OC)=C(N)Oc2cc(N(C)C)ccc21` (centres undefined), the EC50 is 0.826 µM (active).
The same measure, in the same setting: with `Cc1cc2c(NC(=O)Nc3ccc(C(F)(F)F)cc3)cccc2nn1` the figure was 4.55 µM (active); with `CN(CCOc1ccccc1)CC(O)COCc1ccccc1F` (centres undefined), 0.526 µM (active).
The same measure, in the same setting: for `COc1ccc(Cc2noc(CN3CCN(Cc4cccc(Cl)c4)CC3)n2)cc1OC` the value was 0.788 µM (active).
For `COc1ccc(NC(=O)c2cccc(Cn3cc(Br)c([N+](=O)[O-])n3)c2)c(C)c1`, the EC50 was 0.32 µM (active).

Tested on in a further data set: not listed separately
In words: cytotoxicity toward NIH3T3 fibroblasts, dose response, counter-screen, cell-based, ATP luminescence, mouse fibroblasts (AID 2010).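 Further: cells exposed to compound for about 90 hours before reading.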 Format: functional.
Settings: not given
For orientation: A counterscreen serves to expose hits that act by an unwanted route or on another target.
Consider `O=C(COc1ccccc1)N1CCN(c2nnc(-c3ccccc3)c3ccccc23)CC1`, for which the EC50 is reported as > 60 µM (not active).
On the same count and under the same terms, for `CN1CCN(c2oc(COc3ccc(-c4ccccc4)cc3)nc2C#N)CC1` the value was > 60 µM (not active).
Same read-out and setting: with `CCCCN=C(S)N1CCn2cccc2C1c1cccnc1` (centres undefined) the figure was > 60 µM (inconclusive); with `CCOc1ccc(NC(=O)CCSc2nc3c(c(CC)c2C#N)C(=O)CC(C)(C)C3)cc1`, > 60 µM (inconclusive); with `CC1(C)CC2CC(C)(CN2C(=O)c2ccc([N+](=O)[O-])cc2[N+](=O)[O-])C1` (centres undefined), > 60 µM (not active).
Same read-out and setting: with `CCS(=O)(=O)N1CCN(c2ccc(C(=O)NC3C4CC5CC(C4)CC3C5)cc2[N+](=O)[O-])CC1` (centres undefined) the figure was > 30 µM (not active).
`c1cncc(-c2nc(NCCCN3CCOCC3)c3c4c(sc3n2)CCC4)c1`: the EC50 is on record as > 60 µM (not active).
The same measure, in the same setting: for `Fc1ccc(NC(=S)N2CCn3cccc3C2c2cccnc2)cc1` (centres undefined) the value was > 60 µM (not active); for `CCC1(CC)C(=O)N(Cc2ccccc2)C(=O)N(Cc2ccccc2)C1=O`, > 30 µM (not active); for `Cc1nc(Nc2ccc(S(=O)(=O)N3CCCCC3C)cc2)c2nnn(Cc3ccccc3)c2n1` (centres undefined), > 60 µM (not active).
Same read-out and setting: with `CCOc1ccc(Br)cc1C1C(C(=O)OC)=C(N)Oc2cc(N(C)C)ccc21` (centres undefined) the figure was 8.1 µM (active).
Consider `Cc1cc2c(NC(=O)Nc3ccc(C(F)(F)F)cc3)cccc2nn1`, for which the EC50 is > 60 µM (not active).
For the molecule `CN(CCOc1ccccc1)CC(O)COCc1ccccc1F` (centres undefined), the EC50 is reported as > 60 µM (not active).
In the case of `COc1ccc(Cc2noc(CN3CCN(Cc4cccc(Cl)c4)CC3)n2)cc1OC`, the EC50 is listed as > 30 µM (not active).
Turning to `COc1ccc(NC(=O)c2cccc(Cn3cc(Br)c([N+](=O)[O-])n3)c2)c(C)c1`, the EC50 was 9.14 µM (active).

For the next data set, the system named is Streptococcus. In words: Group A Streptococcus viability loss, dose response, counter-screen for streptokinase expression inhibitor project, luminescence, BacTiterGlo (AID 1915).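 Further: potency for reduction of bacterial viability or growth.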 Format: functional, organism-based.
Settings: not given
`Cc1ccc(NS(=O)(=O)c2cc([N+](=O)[O-])ccc2NN=C(S)Nc2cccc(Cl)c2)c(C)c1`: the EC50 is 2.37 µM (active).

For the next data set, the target named is T1, Corticotropin-releasing factor receptor 2/Corticotropin-releasing factor-binding protein (Homo sapiens, UniProt P24387+Q13324).
T1 sequence (Q13324 whole entry): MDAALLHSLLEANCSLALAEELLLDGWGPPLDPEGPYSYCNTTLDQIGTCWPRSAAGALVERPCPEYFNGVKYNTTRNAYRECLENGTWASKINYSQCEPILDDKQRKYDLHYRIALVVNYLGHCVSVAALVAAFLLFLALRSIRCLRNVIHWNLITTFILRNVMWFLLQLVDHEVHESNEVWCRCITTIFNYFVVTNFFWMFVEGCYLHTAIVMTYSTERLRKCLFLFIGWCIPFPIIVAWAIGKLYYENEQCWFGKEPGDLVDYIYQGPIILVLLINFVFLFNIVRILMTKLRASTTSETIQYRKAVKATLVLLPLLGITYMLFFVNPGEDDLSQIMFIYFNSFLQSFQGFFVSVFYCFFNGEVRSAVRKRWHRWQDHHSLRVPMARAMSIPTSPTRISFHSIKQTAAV
T1 sequence (P24387 whole entry): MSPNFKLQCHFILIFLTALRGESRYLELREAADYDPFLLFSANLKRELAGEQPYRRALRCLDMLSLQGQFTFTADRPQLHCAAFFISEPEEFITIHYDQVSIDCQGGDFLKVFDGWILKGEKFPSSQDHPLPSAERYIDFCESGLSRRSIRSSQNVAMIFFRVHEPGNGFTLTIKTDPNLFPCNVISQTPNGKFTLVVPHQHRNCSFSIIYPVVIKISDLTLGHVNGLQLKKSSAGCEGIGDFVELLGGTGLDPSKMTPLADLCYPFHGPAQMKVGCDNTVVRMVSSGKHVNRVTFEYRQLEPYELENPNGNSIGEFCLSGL
In words: activators of CRF receptor 2 with binding protein – uHTS hits, confirmation (AID 602473). Type of data set: functional. Particulars: read-out: EC50_Mean.
For the molecule `COc1ccc2c(CC#N)c[nH]c2c1`, the EC50 is > 53 µM (inactive).
Same read-out and setting: for `CCC1CCCCN1C(=O)COC(=O)COc1ccc(Br)cc1` (centres undefined) the value was > 53 µM (inactive).
Still for that read-out and setting: with `C=CCC[C@H](Cc1ccc(F)cc1)C(=O)OC[C@H](Cc1c[nH]c2ccccc12)NC(=O)[C@@H](CC=C)CC(=O)NCCO` the figure was 12.8 µM (active).
As for `CCc1ccc(S(=O)(=O)NCC2(N3CCOCC3)CCCCC2)cc1`, the EC50 is 6.83 µM (active).
Same read-out and setting: for `CCc1ccccc1N1CN(Cc2ccco2)CNC1=S` the value was > 53 µM (inactive).
